Assay results published in patent publication US8759357B2, “Inhibitors of fatty acid binding protein (FABP)” (Merck Sharp & Dohme Corp., priority 2009, dated 2014).

Tests used:
FABP4 = FABP4 (Homo sapiens, UniProt P15090); experiment: TdF (Temperature Dependence Fluorescence) thermal shift assay for FABP4; format: binding; conditions: 3 μM protein; 15, 50 or 100 μM compound; Kd from ΔTm
Description: TdF (Temperature Dependence Fluorescence) Assay for FABP3 and FABP4
The SAR (Structure Activity Relationship) for FABP3 and FABP4 ligands covered by this invention was interrogated using the TdF (Temperature Dependence Fluorescence) assay or best known as thermal shift assay (M. W. Pantoliana et al, J. Biomol. Screen 6 (2001) 429-440). The TdF assay was mainly conducted in the 96-well based CHROMO-4 real time fluorescence plate reader (BioRad). The Sypro Orange (Sigma-Aldrich), environmentally sensitive fluorescence dye, was used to monitor the protein folding-unfolding transition. Protein-ligand binding was gauged by the change (or shift) in the unfolding transition temperature (ΔTm) acquired at protein alone with respect to protein in the presence of ligand of interest.
The compound of interest was first prepared in DMSO stock (typical concentration: 10 mM). Sample of 20 μL was then added into the 96-well PCR plate, where it consisted of 3 μM protein (FABP4 or FABP3) and 15, 50 or 100 μM compound (depending on compound's solubility) in buffer (25 mM HEPES, 150 mM NaCl, pH=7.5 and 1 mM DTT) incorporated with Sypro Orange dye (5× final concentration). Final percentage of DMSO resided in the sample was 2%. The sample plate was heated from 30° C. to 90° C. with thermal ramping rate of 1° C./min. The fluorescence signals were acquired with excitation and emission wavelengths centered at 490 and 560 nm respectively. The instrument thermal stability was ±0.2° C. The melting Temperatures™ for FABP4 and FABP3 proteins under aforementioned conditions occurred at 61.0±0.2° C. and 64.8±0.2° C. respectively.
Theoretical Basis for TdF-Based Ligand Binding Affinity Constant
The derivation of TdF-based ligand binding affinity constant (Kd) followed closely those previously formulated by Brandts and Lin, Biochemistry 29 (1990) 6927-6940. In brief, the binding constant of the ligand at the Tm is expressed as below:
[formula] where T0 is the midpoint of unfolding for unliganded protein and Tm is the midpoint of unfolding in presence of ligand. [LTm] is free ligand at Tm. The ΔHu and ΔCpu are the enthalpy of unfolding and heat capacity change of unfolding for the protein respectively. The ΔCPu is proportional to the size of protein and is an approximate quantity in the above equation (empirically, ΔCpu=(MW of protein/115)*14 cal/mol*K). Following algorithm derived by Mayhood et al, (Analytical Biochemistry 345 (2005) 187-197), the T0 and ΔHu can be determined separately from nonlinear regression fitting the temperature dependent protein alone curve to the following equation: […]
Where F(T) is the observed fluorescence intensity at any temperature T, Yn and Yu are the predicted fluorescence intensities for fully folded and unfolded protein, respectively; mn and mu are slope correction for changes in Yn and Yu with respect to changes in temperature (analogously replace T0 with Tm in the above equation for liganded protein to yield Tm). The nonlinear regression fitting in general readily reaches convergence by properly constraining the initial values for the fitting parameters (e.g. the initial “guess” for the ΔHu was constrained to 120 kcal/mol; initial Yn and mn were set to 1 and zero to best represent the melting curve along the low temperature region; negative slope of −0.5 was initially chosen for mu; initial Tm was also constrained to 50° C.).
Finally, the ligand binding affinity constant at any temperature T 25° C.) can be thermodynamically connected to the preceding KL™ via
[formula] (see Brandts et al and Mayhood et al, shown above) where ΔHL (T) is the van't Hoff enthalpy of ligand binding at temperature T and ΔCpL is the heat capacity upon ligand binding. For simplicity, the ΔCpL and ΔHL (T) were set to zero and −7 kcal/mol respectively. […]

FABP5 = FABP5 (Homo sapiens, UniProt Q01469); experiment: TdCD (Temperature-Dependent Circular Dichroism) assay for FABP5; format: binding; conditions: compounds at 50 μM and 25 μM; Kd calculated at T=20° C.; 50% uncertainty
Description: [formula] (see Brandts et al and Mayhood et al, shown above) where ΔHL (T) is the van't Hoff enthalpy of ligand binding at temperature T and ΔCpL is the heat capacity upon ligand binding. For simplicity, the ΔCpL and ΔHL (T) were set to zero and −7 kcal/mol respectively. (The ΔCpL accounts for minimal portion of total protein-ligand binding energetics and is therefore set to zero (For example, see Hossein Naghibi et al, Proc. Natl. Acad. Sci. 92, 5597-5599 (1995), where ΔCpL was estimated to ˜2% of ΔHL at 25° C. obtained from calorimetric study of binding Rnase A and 2′-CMP)). TdCD (Temperature-Dependent Circular Dichroism) Assay for FABP3/4/5
JASCO 810 spectropolarimeter was used to measure Circular Dichroism (CD) spectra and temperature-dependent protein unfolding profiles. The instrument is equipped with a 6-cell piezoelectric temperature controller. Ellipticity was monitored at 226 nm as a function of temperature with a 1 mm path length cell. The scan rate was 1° C./min with a 4 s response time and 30 s equilibration between measurements.
Stock protein FABP5 (3.5 mgs/mL), FABP4 (1.8 mgs/mL) and FABP3 (3 mgs/mL) were diluted to 10-15 μM with 25 mM HEPES pH 7.5, 150 mM NaCl, 1 mM DTT. 10 mM stocks of individual compounds were made in 100% DMSO. The compounds were tested at 50 μM and 25 μM concentrations. DMSO was added to protein-alone (apo) samples to 1% to compensate for DMSO amounts in protein+ligand samples. Data were analyzed using Jasco software and the midpoints of the protein unfolding Transitions™, and the ligand binding constants (KL) were calculated as previously described (See, for example, Mayhood et al, Analytical Biochemistry 345 (2005) 187-197; Smith et al, Biochemistry 46 (2007) 1358-1367; Brandts et al, Biochemistry 29 (1990) 6927-6940; and Matulis et al, Biochemistry 44 (2005) 5258-5266).
Briefly, the To (midpoint of unfolding for the unliganded protein) was calculated from best fit of the unfolding data to the equation below:
[formula] Where, Yobs is the observed ellipticity value at any temperature T, Yn and Yu are the predicted ellipticity values for fully folded and unfolded species, respectively, mn and mu are slope correction for changes in Yn and Yu with respect to changes in temperature. To is the midpoint temperature at which the unliganded protein unfolds and ΔHu and ΔCpu are the heat of unfolding and heat capacity of unfolding, respectively for the unliganded species.
In presence of ligand, the midpoint Temperature™ defines where the equilibrium concentrations of unfolded and folded species are equal. Incorporation of the unliganded free energy of binding and subsequent thermodynamic substitution yielded the binding constant of the ligand at the Tm value of unfolding:
[formula] where, T0 is the midpoint of unfolding for unliganded protein and Tm is the midpoint of unfolding in presence of ligand. [LTm] is free ligand at Tm.
Based on estimates for enthalpy of binding, ΔHL (estimated to be −7 kcal/mol) and ligand binding heat capacity ΔCpL (set to be zero), the ligand binding association constant (KL) at temperature T=20° C. were calculated as below. Based on reasonable boundary change of the estimated ligand binding ΔHL, a 50% uncertainty was uniformly assigned to the calculated TdCD Kd (1/KL) values at T=20° C.

Chain of FABP5 (Q01469 whole entry): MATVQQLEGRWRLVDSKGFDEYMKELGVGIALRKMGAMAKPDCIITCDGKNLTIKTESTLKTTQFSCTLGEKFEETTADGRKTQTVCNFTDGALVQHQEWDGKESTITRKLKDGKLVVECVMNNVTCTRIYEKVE
Chain of FABP4 (P15090 whole entry): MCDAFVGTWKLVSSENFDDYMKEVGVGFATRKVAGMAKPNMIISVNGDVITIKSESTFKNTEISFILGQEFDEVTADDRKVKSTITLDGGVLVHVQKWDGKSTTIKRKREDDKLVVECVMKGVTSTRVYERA

SMILES | Kd (FABP4) [nM] | Kd (FABP5) [nM]
O=c1cc(COCc2ccccc2Cl)[nH]c2nc(-c3ccccc3)nn12 [1-154] | 1 to 200 | 500 to 100000
O=c1cc(COCc2cccnc2Cl)[nH]c2nc(-c3ccccc3)nn12 [1-128] | 200 to 5000 | 500 to 100000
CC(OCc1cc(=O)n2nc(-c3ccccc3)nc2[nH]1)c1ccccc1F (stereo not shown) [1-132] | 200 to 5000 | 500 to 100000
O=c1cc(COCC2CCCCC2)[nH]c2nc(-c3ccccc3)nn12 [1-125] | 1 to 200 | 500 to 100000
O=C(O)c1cccc(COCc2cc(=O)n3nc(-c4ccccc4)nc3[nH]2)c1 [1-133] | 200 to 5000 | 500 to 100000
COC(C)(Cc1cc(=O)n2nc(-c3ccccc3)nc2[nH]1)C(=O)NCC1(c2ccc(Cl)cc2)CCC1 (stereo not shown) [36-2] | 1 to 200 | 500 to 100000
Cc1ccccc1OC(C)(C)COCc1cc(=O)n2nc(-c3ccccc3)nc2[nH]1 [27-4] | 1 to 200 | 500 to 100000
CC(OCc1cc(=O)n2nc(-c3ccccc3)nc2[nH]1)c1ccccc1Cl (stereo not shown) [1-117] | 1 to 200 | 500 to 100000
O=c1cc(COCC2(c3cccc(C(F)(F)F)c3)CC2)[nH]c2nc(-c3ccccc3)nn12 [1-129] | 1 to 200 | 500 to 100000
O=c1cc(COC(CO)c2ccccc2Cl)[nH]c2nc(-c3ccccc3)nn12 (stereo not shown) [34-2] | > 5000 | 500 to 100000
CCC[C@H](OCc1cc(=O)n2nc(-c3ccccc3)nc2[nH]1)c1ccccc1 [1-122] | > 5000 | 500 to 100000
O=c1cc(COCC2(c3cccc(F)c3)CC2)[nH]c2nc(-c3ccccc3)nn12 [1-119] | 1 to 200 | 500 to 100000
CC(Cc1cc(=O)n2nc(-c3ccccc3)nc2[nH]1)(Oc1cccc(Cl)c1)C(=O)O (stereo not shown) [35-4] | > 5000 | 500 to 100000
O=c1cc(COC(c2ccccc2)C2CC2)[nH]c2nc(-c3ccccc3)nn12 (stereo not shown) [1-116] | 200 to 5000 | 500 to 100000
O=c1cc(COCc2ccccc2C(F)(F)F)[nH]c2nc(-c3ccccc3)nn12 [1-140] | > 5000 | 500 to 100000
CC[C@H](OCc1cc(=O)n2nc(-c3ccccc3)nc2[nH]1)c1ccccc1 [1-123] | > 5000 | 500 to 100000

SMILES | Kd (FABP4) [nM] | Kd (FABP5) [nM]
O=c1cc(COC(CC2CC2)c2ccccc2)[nH]c2nc(-c3ccccc3)nn12 (stereo not shown) [1-126] | 200 to 5000 | 500 to 100000
CN(Cc1ccc(C(F)(F)F)cc1)Cc1cc(=O)n2nc(-c3ccccc3)nc2[nH]1 [1-53] | 200 to 5000 | 500 to 100000
CC(Cc1cc(=O)n2nc(-c3ccccc3)nc2[nH]1)(Oc1cccc(Cl)c1)C(=O)NCC1(c2ccccc2Cl)CC1 (stereo not shown) [35-5] | 1 to 200 | 500 to 100000
O=c1cc(COCc2cccnc2F)[nH]c2nc(-c3ccccc3)nn12 [1-127] | 200 to 5000 | 500 to 100000
O=c1cc(CNC2(c3cccc(C(F)(F)F)c3)CC2)[nH]c2nc(-c3ccccc3)nn12 [1-137] | 200 to 5000 | 500 to 100000
CC(C)(Cc1ccccc1)OCc1cc(=O)n2nc(-c3ccccc3)nc2[nH]1 [1-120] | 1 to 200 | 500 to 100000
CCC(OCc1cc(=O)n2nc(-c3ccccc3)nc2[nH]1)C1CCCCC1 (stereo not shown) [1-121] | 1 to 200 | 500 to 100000
O=c1cc(COCc2cccc(Cl)c2Cl)[nH]c2nc(-c3ccccc3)nn12 [1-145] | 200 to 5000 | 500 to 100000
C=CCC(OCc1cc(=O)n2nc(-c3ccccc3)nc2[nH]1)c1ccccc1Cl (stereo not shown) [1-130] | 1 to 200 | 500 to 100000
O=c1cc(COCc2ccccc2)[nH]c2nc(-c3ccccc3)nn12 [1-144] | 200 to 5000 | 500 to 100000
O=c1cc(COCC(O)c2ccccc2Cl)[nH]c2nc(-c3ccccc3)nn12 (stereo not shown) [34-1] | > 5000 | 500 to 100000
[2H]C([2H])([2H])OC(C(=O)NCC1(c2ccc(Cl)cc2)CCC1)(C([2H])([2H])[2H])C([2H])([2H])c1cc(=O)n2nc(-c3ccccc3)nc2[nH]1 (stereo not shown) [37-2] | 1 to 200 | 500 to 100000
CC(OCc1cc(=O)n2nc(-c3ccccc3)nc2[nH]1)C1CCCCC1 (stereo not shown) [1-124] | 1 to 200 | 500 to 100000
CCC(OCc1cc(=O)n2nc(-c3ccccc3)nc2[nH]1)c1ccccc1Cl (stereo not shown) [1-153] | 1 to 200 | 500 to 100000
O=c1cc(CNCC2(c3cccc(C(F)(F)F)c3)CC2)[nH]c2nc(-c3ccccc3)nn12 [1-138] | 200 to 5000 | 500 to 100000
Cc1c(Cl)cccc1OC(C)(C)COCc1cc(=O)n2nc(-c3ccccc3)nc2[nH]1 [27-3] | 1 to 200 | 500 to 100000
